Laboratory results published in paper PMC9564337, “Development of a Neurotensin-Derived ^68Ga-Labeled PET Ligand with High In Vivo Stability for Imaging of NTS1 Receptor-Expressing Tumors” (Cancers, 2022).
Read-outs that look alike come from different tables or passages of the source. Residues, ends and D or L forms follow the SMILES beside them.

Legend:
hNTS1R = molecular target: T1, hNTS1R (Homo sapiens, UniProt P30989); assay: radioligand competition binding with [3H]UR-MK300 at intact HT-29 cells; details: for Ki / pKi ± SD NTS1R: [3H]UR-MK300 c = 1 nM, HT-29 cells, 23 °C
T1 construct: intact HT-29 colon carcinoma cells expressing the hNTS1R; host or cells: HT-29 human colon carcinoma cells
Description: Specific binding data (obtained by subtracting unspecific binding from total binding) were normalized (100% = specifically bound radioligand in the absence of competitor) and plotted over log(concentration of competitor) followed by a four-parameter logistic fit (SigmaPlot 12.5, Systat Software, San José, CA, USA) (note: in the case of 40, the lower curve plateau of the sigmoidal fit was constrained to >0). […] The Ki values from individual experiments were transformed to pKi values, followed by the calculation of mean pKi values ± SD.

hNTS2R = hNTS2R (Homo sapiens, UniProt O95665); assay: radioligand competition binding with [3H]UR-MK300 at intact HEK293T-hNTS2R cells; details: [3H]UR-MK300 c = 10 nM
Description: Two days prior to the experiment, white 96-well plates with clear bottoms (Costar, catalog no. 3610) were treated with poly-D-lysine hydrobromide (Sigma-Aldrich) for 10 min. The wells were washed with H2O and the plates were dried on air at rt overnight. […] After removal of the glutaraldehyde solution, the wells were washed twelve times with H2O and two times with culture medium (150–300 µL). […] On the day of the experiment, the culture medium was carefully removed using a multi-channel pipette (Transferpette S-12, Brand, Wertheim, Germany) and the cells were washed once with Dulbecco’s phosphate-buffered saline (D-PBS) containing Ca^2+ and Mg^2+ (1.8 mM CaCl2, 2.68 mM KCl, 1.47 mM KH2PO4, 3.98 mM MgSO4, 136.9 mM NaCl and 8.06 mM Na2HPO4) (200 μL, rt) followed by the careful pre-filling of the wells with 180 µL (total binding) or 160 µL (unspecific and competition binding) of D-PBS, supplemented with 1% BSA and 100 μg/mL bacitracin (Serva, Heidelberg, Germany) (in the following referred to as binding buffer). To determine total binding, 20 µL of a solution of the radioligand in binding buffer (10-fold concentrated compared to the final concentration) were added. […] To determine the displacing effect of a compound of interest, 20 µL of a solution of the respective compound in binding buffer (10-fold concentrated) and 20 µL of a 10-fold concentrated solution of the radioligand in binding buffer were added. During the incubation period of 2 h at 23 °C, the plates were gently shaken. […] The plates were sealed with a transparent sealing tape (permanent seal for microplates, PerkinElmer, product no. 1450–461) and turned upside down several times to achieve complete mixing. Prior to the measurement of the radioactivity with a MicroBeta2 plate counter (PerkinElmer), the plates were kept in the dark for at least 1 h. All experiments were performed in triplicate.

in vitro = in vitro ADME; details: human; for remaining at 1 h, 100 µM / remaining at 6 h, 100 µM / remaining at 24 h, 100 µM / remaining at 48 h, 100 µM: plasma; for remaining at 1 h, 100 µM: pH 7.4, % Intact Peptide in Plasma after 1 h; for remaining at 6 h, 100 µM: pH 7.4, % Intact Peptide in Plasma after 6 h; for remaining at 24 h, 100 µM: pH 7.4, % Intact Peptide in Plasma after 24 h; for remaining at 48 h, 100 µM: pH 7.4, % Intact Peptide in Plasma after 48 h
Description: The concentration of the peptides in plasma/PBS (1:2 v/v) was 80 and 4 μM (recovery determination) or 100 μM (stability tests). Data analysis was based on UV detection at 220 nm (8, 9, 11, 12, 14-18, 21-23, 38-49, and 54-57) or fluorescence detection at 275/305 nm (19 and 20). Reference samples, representing 100% recovery, were prepared in duplicate (8, 9, 11, 14-16, and 19-21) or quadruplicate (12, 17, 18, 22, 23, 38-49, and 54-57). Recovery ratios were obtained by dividing the recovery of the peptide by the recovery of IS for each individual sample (n = 3-5). The obtained recoveries and the recovery ratios are summarized in Table S2, Supplementary Materials. […] Instead, the recovery ratios determined for the previously reported, structurally closely related peptide […] [40] were used for calculating the amount of remaining intact peptide in plasma.

[1] = read-out: Ki [nM] NTS1R (converted)
[2] = read-out: pKi ± SD NTS1R (converted)
[3] = read-out: Ki [nM] NTS2R (converted)
[4] = read-out: pKi ± SD NTS2R (converted)

T1 sequence (P30989 whole entry): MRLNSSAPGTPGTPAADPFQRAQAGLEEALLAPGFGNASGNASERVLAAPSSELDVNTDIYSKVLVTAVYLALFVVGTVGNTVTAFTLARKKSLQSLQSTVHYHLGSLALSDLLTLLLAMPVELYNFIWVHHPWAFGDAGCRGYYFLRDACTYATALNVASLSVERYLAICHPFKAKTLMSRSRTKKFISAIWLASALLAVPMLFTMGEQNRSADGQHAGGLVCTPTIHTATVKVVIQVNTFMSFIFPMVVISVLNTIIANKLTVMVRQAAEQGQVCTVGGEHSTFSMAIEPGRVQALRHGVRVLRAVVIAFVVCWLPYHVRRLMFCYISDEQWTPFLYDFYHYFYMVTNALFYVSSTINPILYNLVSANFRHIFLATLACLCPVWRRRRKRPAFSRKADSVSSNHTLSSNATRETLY
Sequence of hNTS2R (O95665 whole entry): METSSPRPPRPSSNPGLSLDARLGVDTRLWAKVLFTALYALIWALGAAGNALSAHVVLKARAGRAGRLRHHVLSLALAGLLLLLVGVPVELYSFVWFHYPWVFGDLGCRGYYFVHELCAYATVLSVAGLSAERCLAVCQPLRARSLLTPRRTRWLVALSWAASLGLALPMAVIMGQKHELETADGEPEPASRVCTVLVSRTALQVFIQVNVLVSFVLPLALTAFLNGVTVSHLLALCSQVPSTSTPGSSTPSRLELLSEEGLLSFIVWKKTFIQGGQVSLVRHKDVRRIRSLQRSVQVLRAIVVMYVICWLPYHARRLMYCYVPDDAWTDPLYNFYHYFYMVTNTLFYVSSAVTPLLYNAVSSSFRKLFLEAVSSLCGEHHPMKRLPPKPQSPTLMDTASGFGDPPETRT

Row | SMILES | NTS1R Selectivity (Ratio Ki (NTS2R)/Ki (NTS1R)) (hNTS1R) | Ki (hNTS1R; [1]) | Ki (hNTS1R; [2]) | Ki (hNTS2R; [3]) | pKi ± SD NTS1R (hNTS1R) | pKi ± SD NTS2R (hNTS2R) | remaining at 1 h, 100 µM (in vitro) | remaining at 6 h, 100 µM (in vitro) | remaining at 24 h, 100 µM (in vitro) | remaining at 48 h, 100 µM (in vitro) | Ki (hNTS2R; [4]) | % Intact Peptide in Plasma after 24 h (in vitro; 100 µM, pH 7.4) | % Intact Peptide in Plasma after 48 h (in vitro; 100 µM, pH 7.4) | % Intact Peptide in Plasma after 1 h (in vitro; 1 h, 100 µM, pH 7.4) | % Intact Peptide in Plasma after 6 h (in vitro; 100 µM, pH 7.4)
1 | CN[C@@H](CCCNC(=N)N)C(=O)N[C@@H](CCCNC(=N)NC(=O)NCCCCNC(=O)CN1CCN(CC(=O)O)CCN(CC(=O)O)CCN(CC(=O)O)CC1)C(=O)N1CCC[C@H]1C(=O)N[C@@H](Cc1ccc(O)cc1)C(=O)N[C@H](C(=O)N[C@@H](CC(C)C)C(=O)O)C(C)(C)C [Compound 14] | 2.8 | 28 nM | 21.9 nM | 79 nM | – | – | – | – | – | – | – | – | – | – | –
2 | CN[C@@H](CCCNC(=N)N)C(=O)N[C@@H](CCCNC(N)=NC(=O)NCCCCNC(=O)CN1CCN(CC(=O)O)CCN(CC(=O)O)CCN(CC(=O)O)CC1)C(=O)N1CCC[C@H]1C(=O)N[C@@H](Cc1ccc(O)cc1)C(=O)N[C@H](C(=O)N[C@@H](CC(C)C)C(=O)O)C(C)(C)C [Compound 19] | 4.6 | 16 nM | – | 73 nM | 7.80 ± 0.03 | 7.16 ± 0.18 | > 99% | > 99% | 36 ± 1% | 4.2 ± 0.6% | – | – | – | – | –
3 | CN[C@@H](CCCNC(N)=NC(=O)NCCCCNC(=O)CN1CCN(CC(=O)O)CCN(CC(=O)O)CCN(CC(=O)O)CC1)C(=O)N[C@@H](CCCNC(=N)N)C(=O)N1CCC[C@H]1C(=O)N[C@@H](Cc1ccc(O)cc1)C(=O)N[C@H](C(=O)N[C@@H](CC(C)C)C(=O)O)C(C)(C)C [Compound 16] | 4.5 | 33 nM | 33.1 nM | 150 nM | – | – | – | – | – | – | 138 nM | 93 ± 3% | 84 ± 2% | – | –
4 | CC(C)C[C@H](NC(=O)[C@@H](NC(=O)[C@H](Cc1ccc(O)cc1)NC(=O)[C@@H]1CCCN1C(=O)[C@H](CCCNC(=N)NC(=O)NCCCCN)N(C)C(=O)[C@@H](N)CCCNC(=N)N)C(C)(C)C)C(=O)O [Compound 11] | 2.1 | 13 nM | – | 27 nM | – | – | > 99% | > 99% | > 99% | > 99% | – | – | – | – | –
5 | CC[C@H](C)[C@H](NC(=O)[C@H](Cc1ccc(O)cc1)NC(=O)[C@@H]1CCCN1C(=O)[C@H](CCCNC(=N)N)NC(=O)[C@H](CCCNC(=N)N)NC)C(=O)N[C@@H](CC1CC1)C(=O)O [Compound 46] | – | 2.6 nM | 2.34 nM | – | – | – | 25 ± 2% | < 1% | < 1% | < 1% | – | – | – | – | –
6 | CN[C@@H](CCCNC(=N)N)C(=O)N[C@@H](CCCNC(=N)N)C(=O)N1CCC[C@H]1C(=O)N[C@@H](Cc1ccc(O)cc1)C(=O)N[C@@](C)(CC(C)C)C(=O)N[C@@H](CC(C)C)C(=O)O [Compound 44] (HELM PEPTIDE1{[meR].R.P.Y.[CC(C)C[C@](C)(N[*:1])C(=O)[*:2]].L}$$$$V2.0) | – | > 1000 nM | > 1000 nM | – | – | – | 94 ± 1% | 91 ± 4% | 91 ± 1% | 87 ± 1% | – | – | – | – | –
7 | CC(C)C[C@H](NC(=O)[C@@H](NC(=O)[C@H](Cc1ccc(O)cc1)NC(=O)[C@@H]1CCCN1C(=O)[C@H](CCCNC(=N)NC(=O)NCCCCNC(=O)CN1CCN(CC(=O)O)CCN(CC(=O)O)CCN(CC(=O)O)CC1)N(C)C(=O)[C@@H](N)CCCNC(=N)N)C(C)(C)C)C(=O)O [Compound 17] | 6.4 | 36 nM | – | 230 nM | – | – | 97 ± 1% | 99 ± 1% | – | – | 224 nM | 98 ± 1% | – | – | –
8 | CC(C)C[C@H](NC(=O)[C@@H](NC(=O)[C@H](Cc1ccc(O)cc1)NC(=O)[C@@H]1CCCN1C(=O)[C@H](CCCNC(N)=NC(=O)NCCCCNC(=O)CN1CCN(CC(=O)O)CCN(CC(=O)O)CCN(CC(=O)O)CC1)N(C)C(=O)[C@@H](N)CCCNC(=N)N)C(C)(C)C)C(=O)O [Compound 22] | 4.4 | 20 nM | – | 88 nM | 7.70 ± 0.07 | 7.08 ± 0.16 | – | – | – | – | – | 30 ± 1% | 7.7 ± 1.0% | >99% | 87 ± 2%
9 | CN[C@@H](CCCNC(N)=NC(=O)NCCOCCOCCNC(=O)CN1CCN(CC(=O)O)CCN(CC(=O)O)CCN(CC(=O)O)CC1)C(=O)N[C@@H](CCCNC(=N)N)C(=O)N1CCC[C@H]1C(=O)N[C@@H](Cc1ccc(O)cc1)C(=O)N[C@H](C(=O)N[C@@H](CC(C)C)C(=O)O)C(C)(C)C [Compound 23] | – | 7.5 nM | – | – | 8.13 ± 0.11 | – | > 99% | – | – | – | – | 46 ± 2% | 7.8 ± 0.6% | – | 98 ± 6%
10 | CCC(CC)(NC(=O)[C@H](Cc1ccc(O)cc1)NC(=O)[C@@H]1CCCN1C(=O)[C@H](CCCNC(=N)N)NC(=O)[C@H](CCCNC(=N)N)NC)C(=O)N[C@@H](CC(C)C)C(=O)O [Compound 39] | – | > 1000 nM | > 1000 nM | – | – | – | 93 ± 1% | 94 ± 1% | 93 ± 1% | 93 ± 1% | – | – | – | – | –

Next, values leading:

Row | NTS1R Selectivity (Ratio Ki (NTS2R)/Ki (NTS1R)) (hNTS1R) | Ki (hNTS1R; [1]) | Ki (hNTS1R; [2]) | Ki (hNTS2R; [3]) | pKi ± SD NTS1R (hNTS1R) | pKi ± SD NTS2R (hNTS2R) | remaining at 1 h, 100 µM (in vitro) | remaining at 6 h, 100 µM (in vitro) | remaining at 24 h, 100 µM (in vitro) | remaining at 48 h, 100 µM (in vitro) | Ki (hNTS2R; [4]) | % Intact Peptide in Plasma after 24 h (in vitro; 100 µM, pH 7.4) | % Intact Peptide in Plasma after 48 h (in vitro; 100 µM, pH 7.4) | % Intact Peptide in Plasma after 1 h (in vitro; 1 h, 100 µM, pH 7.4) | % Intact Peptide in Plasma after 6 h (in vitro; 100 µM, pH 7.4) | SMILES
11 | 4.2 | 5.3 nM | – | 22 nM | – | – | > 99% | > 99% | > 99% | > 99% | 20.9 nM | – | – | – | – | CN[C@@H](CCCNC(=N)N)C(=O)N[C@@H](CCCNC(=N)NC(=O)NCCCCN)C(=O)N1CCC[C@H]1C(=O)N[C@@H](Cc1ccc(O)cc1)C(=O)N[C@H](C(=O)N[C@@H](CC(C)C)C(=O)O)C(C)(C)C [Compound 8]
12 | 1.2 | 5.4 nM | 5.01 nM | 6.5 nM | – | – | – | – | – | – | 6.03 nM | – | – | – | – | CN[C@@H](CCCNC(N)=NC(=O)NCCCCN)C(=O)N[C@@H](CCCNC(=N)N)C(=O)N1CCC[C@H]1C(=O)N[C@H](C(=O)N[C@H](C(=O)N[C@@H](CC(C)C)C(=O)O)C(C)(C)C)C(C)(C)c1ccc(O)cc1 [Compound 52]
13 | – | 4.8 nM | 4.68 nM | – | – | – | 92 ± 1% | 87 ± 1% | 70 ± 1% | 52 ± 1% | – | – | – | – | – | CC[C@@H](C)[C@H](NC(=O)[C@H](Cc1ccc(O)cc1)NC(=O)[C@@H]1CCCN1C(=O)[C@H](CCCNC(=N)N)NC(=O)[C@H](CCCNC(=N)N)NC)C(=O)N[C@@H](CC(C)C)C(=O)O [Compound 38]
14 | – | 1.2 nM | – | – | – | – | 99 ± 1% | 95 ± 1% | 78 ± 1% | 58 ± 1% | – | – | – | – | – | CN[C@@H](CCCNC(=N)N)C(=O)N[C@@H](CCCNC(=N)N)C(=O)N1CCC[C@H]1C(=O)N[C@@H](Cc1ccc(O)cc1)C(=O)N[C@H](C(=O)N[C@@H](CC(C)C)C(=O)O)C1CCCC1 [Compound 43]
15 | – | – | – | 450 nM | – | – | – | – | – | – | 398 nM | – | – | – | – | CN[C@@H](CCCNC(N)=NC(=O)NCCCCN)C(=O)N[C@@H](CCCNC(=N)N)C(=O)N1CCC[C@H]1C(=O)N[C@@H](C(=O)N[C@H](C(=O)N[C@@H](CC(C)C)C(=O)O)C(C)(C)C)C(C)(C)c1ccc(O)cc1 [Compound 53]
